How the values were obtained:
IDO1 [1] = target: T1, IDO1 (Homo sapiens (Human), UniProt P14902); test: IDO1 Cellular Assay in Frozen HEK293 Cells Transiently Transfected with Human IDO1; assay type: cell-based; details: read-out: IDO1 HEK293 Cell Assay, IC50
Description: IDO1 Cellular Assay in Frozen HEK293 Cells Transiently Transfected with Human IDO1
HEK293 cells were cultured in complete HEK293 culture medium (90% DMEM, 10% heat-inactivated fetal bovine serum). When reaching sub-confluent, the cells were trypsinized and neutralized with complete medium. […] Flag-IDO1 plasmid was added to the cell suspension at a concentration of 100 μg/mL. The cell-plasmid solutions were transferred to the OC-400 processing assembly (Maxcyte), 400 l/unit and the units were placed in a Maxcyte instrument to carry out flow electroporation for transfection. The cells were then transferred to a sterile 24-well cell culture plate to recover for 20-30 min at 37° C. in an incubator with 5% CO2.
Frozen HEK293/IDO1 and HEK293 WT cells were thawed and transferred into HEK293 assay medium (99% complete HEK293 culture medium, 1% Pen/Strep) with 20 mL medium/vial of cells. The cells were spun down at 250 g in a table top centrifuge for 5 min and suspended in same volume of HEK293 assay medium. […] Sterile L-tryptophan were added to the cells with final concentration of 300 μM.
(§1) HEK293/IDO1 and HEK293 WT cells were dispensed to the respective wells of 384-well assay plates containing the compounds. The plates were incubated for about 28-30 h at a 37° C., 5% CO2 incubator. […] The plates were centrifuged for 1 min at 200×g. The resulting fluorescence was measured in a Spectramax plate reader (Molecular Devices) with a 400 nm excitation filter and a 510 nm emission filter.

IDO1 [2] = target: T1, IDO1; test: IDO1 Enzyme Assay; details: read-out: IDO1 Enzyme Assay, IC50; HIS-tagged recombinant IDO1, 40 nM
IDO1 [3] = target: T1, IDO1; test: IDO1 Cellular Assay in Hela Cells Stimulated with IFNγ; assay type: cell-based; details: Hela cells stimulated with IFNγ 100 ng/mL; read-out: IDO1 HELA Cell Assay, IC50
Description: IDO1 Cellular Assay in Hela Cells Stimulated with IFNγ
Hela cells were cultured in complete Hela culture medium (90% EMEM, 10% heat-inactivated fetal bovine serum) and expanded to about 1×10^9 cells. The cells were then collected and frozen down at 10×10^6 cells/vial in 1 mL frozen medium (90% complete Hela culture medium, 10% DMSO)
Frozen Hela cells were thawed and transferred into Hela assay medium (99% complete Hela culture medium, 1% Pen/Strep) with 20 mL medium/vial of cells. The cells were spun down at 250 g in a table top centrifuge for 5 min and suspended in same volume of Hela assay medium. The cells were then counted and adjusted to a density of 2×10^5 cells/ml in Hela assay medium. Sterile L-tryptophan were added to the cells with final concentration of 300 uM L-tryptophan. A small aliquot (2 mL/plate) of Hela cells were set aside and were not treated with IFNγ, to serve as the Max-E control. The rest of Hela cells were added with sterile IFNγ (Cat #285-IF, R & D systems) with a final concentration of 100 ng/mL.
as §1, with “Hela cells with” for “HEK293/IDO1”, “without IFNγ” for “HEK293 WT cells”, “48 hours” for “28-30 h”

[4] = HEK293 cells transiently transfected with human IDO1

T1 sequence (P14902 whole entry): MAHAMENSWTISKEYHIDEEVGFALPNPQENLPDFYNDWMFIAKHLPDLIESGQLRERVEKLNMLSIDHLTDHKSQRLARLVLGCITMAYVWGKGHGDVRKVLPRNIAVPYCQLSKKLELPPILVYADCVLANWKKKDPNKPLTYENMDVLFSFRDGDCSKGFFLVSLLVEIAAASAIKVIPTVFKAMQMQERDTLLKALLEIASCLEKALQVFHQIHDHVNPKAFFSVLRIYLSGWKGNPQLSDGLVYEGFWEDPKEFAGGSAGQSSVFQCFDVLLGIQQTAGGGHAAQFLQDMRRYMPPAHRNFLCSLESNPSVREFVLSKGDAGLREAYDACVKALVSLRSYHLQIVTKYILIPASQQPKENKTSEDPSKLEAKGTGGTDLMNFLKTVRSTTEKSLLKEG

| SMILES | IC50 (IDO1 [1]; [4]) | IC50 (IDO1 [2]) | IC50 (IDO1 [1]) | IC50 (IDO1 [3]) |
| --- | --- | --- | --- | --- |
| CC(C)(C)OC(=O)NCCSc1nonc1/C(=N/O)Nc1ccc(F)c(Br)c1 [Example 1, Tert-butyl (Z)-(2-((4-(N-(3-bromo-4-fluorophenyl)-N′-hydroxycarbamimidoyl)-1,2,5-oxadiazol-3-yl)thio)ethyl)carbamate] | 740 nM | – | – | – |
| O/N=C(\Nc1ccc(F)c(Br)c1)c1nonc1O [Example 4, (Z)—N-(3-Bromo-4-fluorophenyl)-N′,4-dihydroxy-1,2,5-oxadiazole-3-carboximidamide] | 3700 nM | > 10000 nM | – | – |
| O=C(O)CCSc1nonc1/C(=N/O)Nc1ccc(F)c(Br)c1 [Example 14, (Z)-3-((4-(N-(3-bromo-4-fluorophenyl)-N′-hydroxycarbamimidoyl)-1,2,5-oxadiazol-3-yl)thio)propanoic acid] | > 10000 nM | 48.2 nM | – | – |
| CC(Sc1nonc1/C(=N/O)Nc1ccc(F)c(Br)c1)C(=O)O (stereo not drawn) [Example 16, (Z)-2-((4-(N-(3-bromo-4-fluorophenyl)-N′-hydroxycarbamimidoyl)-1,2,5-oxadiazol-3-yl)thio)propanoic acid] | > 10000 nM | 149 nM | – | – |
| COC(=O)CSc1nonc1/C(=N/O)Nc1ccc(F)c(Br)c1 [Example 22, Methyl (Z)-2-((4-(N-(3-bromo-4-fluorophenyl)-N′-hydroxycarbamimidoyl)-1,2,5-oxadiazol-3-yl)thio)acetate] | 1220 nM | 35.7 nM | – | – |
| CC(=O)NCCSc1nonc1/C(=N/O)Nc1ccc(F)cc1 [Example 62, N-[2-({4-[N-(4-fluorophenyl)-N′-hydroxycarbamimidoyl]-1,2,5-oxadiazol-3-yl}sulfanyl)ethyl]acetamide] | 1790 nM | 1030 nM | – | – |
| O=c1c(NCCSc2nonc2/C(=N/O)Nc2ccc(F)c(Br)c2)c(NCC(O)CO)c1=O (stereo not drawn) [Example 75, N-(3-bromo-4-fluorophenyl)-4-{[2-({2-[(2,3-dihydroxypropyl)amino]-3,4-dioxocyclobut-1-en-1-yl}amino)ethyl]sulfanyl}-N′-hydroxy-1,2,5-oxadiazole-3-carboximidamide] | 1140 nM | 23 nM | – | – |
| O=c1c(NCCSc2nonc2/C(=N/O)Nc2ccc(F)c(Br)c2)c(NCc2ccncc2)c1=O [Example 95, N-(3-bromo-4-fluorophenyl)-4-{[2-({3,4-dioxo-2-[(pyridin-4-ylmethyl)amino]cyclobut-1-en-1-yl}amino)ethyl]sulfanyl}-N′-hydroxy-1,2,5-oxadiazole-3-carboximidamide] | 723 nM | 27.8 nM | – | – |
| O=P(CCSc1nonc1/C(=N/O)Nc1ccc(F)c(Br)c1)(Oc1ccccc1)Oc1ccccc1 [Example 101, diphenyl [2-({4-[N-(3-bromo-4-fluorophenyl)-N′-hydroxycarbamimidoyl]-1,2,5-oxadiazol-3-yl}sulfanyl)ethyl]phosphonate] | – | 764 nM | 2240 nM | – |
| CCOC(=O)CNP(=O)(CCCSc1nonc1/C(=N/O)Nc1ccc(F)c(Br)c1)NCC(=O)OCC [Example 108, ethyl 4-[3-({4-[N-(3-bromo-4-fluorophenyl)-N′-hydroxycarbamimidoyl]-1,2,5-oxadiazol-3-yl}sulfanyl)propyl]-7-oxo-8-oxa-3,5-diaza-4-phosphadecan-1-oate 4-oxide] | 838 nM | 131 nM | – | – |
| CC(C)OC(=O)OCOP(=O)(CCCSc1nonc1/C(=N/O)Nc1ccc(F)c(Br)c1)OCOC(=O)OC(C)C [Example 109, bis({[(1-methylethoxy)carbonyl]oxy}methyl) [3-({4-[N-(3-bromo-4-fluorophenyl)-N′-hydroxycarbamimidoyl]-1,2,5-oxadiazol-3-yl}sulfanyl)propyl]phosphonate] | 2430 nM | 706 nM | – | – |
| O=P(CCSc1nonc1/C(=N/O)Nc1ccc(F)c(Br)c1)(NCc1ccccc1)NCc1ccccc1 [Example 116, 4-({2-[bis(benzylamino)phosphoryl]ethyl}sulfanyl)-N-(3-bromo-4-fluorophenyl)-N′-hydroxy-1,2,5-oxadiazole-3-carboximidamide] | 706 nM | 154 nM | – | – |
| O=P(O)(CCCSc1nonc1/C(=N/O)Nc1ccc(F)c(Br)c1)Oc1ccccc1 [Example 118, phenyl hydrogen [3-({4-[N-(3-bromo-4-fluorophenyl)-N′-hydroxycarbamimidoyl]-1,2,5-oxadiazol-3-yl}sulfanyl)propyl]phosphonate] | – | 34.1 nM | 8150 nM | – |
| CN(C)P(=O)(CCSc1nonc1/C(=N/O)Nc1ccc(F)c(Br)c1)N(C)C [Example 139, 4-({2-[bis(dimethylamino)phosphoryl]ethyl}sulfanyl)-N-(3-bromo-4-fluorophenyl)-N′-hydroxy-1,2,5-oxadiazole-3-carboximidamide] | – | 117 nM | 551 nM | – |
| CC(=O)N[C@H](C)CSc1nonc1/C(=N/O)Nc1ccc(F)c(C#N)c1 [Example 179, N-[(1R)-2-({4-[N-(3-cyano-4-fluorophenyl)-N′-hydroxycarbamimidoyl]-1,2,5-oxadiazol-3-yl}sulfanyl)-1-methylethyl]acetamide] | 686 nM | 218 nM | – | – |
| O=C(CSc1nonc1/C(=N/O)Nc1ccc(F)c(Br)c1)NC1(CO)CC1 [Example 202, 2-((4-(N-(3-bromo-4-fluorophenyl)-N′-hydroxycarbamimidoyl)-1,2,5-oxadiazol-3-yl)thio)-N-(1-(hydroxymethyl)cyclopropyl) acetamide] | – | 20.2 nM | – | 12.2 nM |
| C[C@H](O)CNC(=O)CSc1nonc1/C(=N/O)Nc1ccc(F)c(Br)c1 [Example 203, (S)-2-((4-(N-(3-bromo-4-fluorophenyl)-N′-hydroxycarbamimidoyl)-1,2,5-oxadiazol-3-yl)thio)-N-(2-hydroxypropyl)acetamide] | – | 14.5 nM | – | 11.6 nM |
| CC(C)(Sc1nonc1/C(=N/O)Nc1ccc(F)c(Br)c1)C(=O)NC[C@@H](O)CO [Example 204, (R)-2-((4-(N-(3-bromo-4-fluorophenyl)-N′-hydroxycarbamimidoyl)-1,2,5-oxadiazol-3-yl)thio)-N-(2,3-dihydroxypropyl)-2-methylpropanamide] | – | 82.6 nM | – | 144 nM |
| C[C@@H](CO)NC(=O)CSc1nonc1/C(=N/O)Nc1ccc(F)c(Br)c1 [Example 205, (S)-2-((4-(N-(3-bromo-4-fluorophenyl)-N′-hydroxycarbamimidoyl)-1,2,5-oxadiazol-3-yl)thio)-N-(1-hydroxypropan-2-yl)acetamide] | – | 12.4 nM | – | 11.7 nM |
| CC(C)(NC(=O)CSc1nonc1/C(=N/O)Nc1ccc(F)c(Br)c1)C(O)CO (stereo not drawn) [Example 208, 2-((4-(N-(3-bromo-4-fluorophenyl)-N′-hydroxycarbamimidoyl)-1,2,5-oxadiazol-3-yl)thio)-N-(3,4-dihydroxy-2-methylbutan-2-yl)acetamide] | – | 26.6 nM | – | 37.5 nM |
| NS(=O)(=O)NCCOc1nonc1/C(=N/O)Nc1ccc(F)c(Br)c1 [Example 212, N-(3-bromo-4-fluorophenyl)-N′-hydroxy-4-(2-(sulfamoylamino)ethoxy)-1,2,5-oxadiazole-3-carboximidamide] | – | 52 nM | – | 111 nM |
| NCCOc1nonc1/C(=N/O)Nc1ccc(F)c(Br)c1 [Example 213, 4-(2-aminoethoxy)-N-(3-bromo-4-fluorophenyl)-N′-hydroxy-1,2,5-oxadiazole-3-carboximidamide] | – | 130 nM | – | 607 nM |
| CS(=O)(=O)NCCOc1nonc1/C(=N/O)Nc1ccc(F)c(Br)c1 [Example 214, N-(3-bromo-4-fluorophenyl)-N′-hydroxy-4-(2-(methylsulfonamido)ethoxy)-1,2,5-oxadiazole-3-carboximidamide] | – | 205 nM | – | 44.4 nM |
